According to patent US9687558B2, “Antitumoral bioconjugates of hyaluronic acid or its derivatives obtained by indirect chemical conjugation, and their use in the pharmaceutical field” (priority 2005, dated 2017):

What was measured:
[1] = Mathijssen R H et al., Clin Cancer Res, 2001; cited from earlier work
[2] = tested on: colic adenocarcinoma HT29 cells; test: Cytotoxicity test in vitro on HT29 cells, MTT colorimetric assay; assay type: cell-based; conditions: 48 hours of contact, HA derivatives in 5% glucosated solution, SN38 in DMSO
Experimental: Evaluation of the Antiproliferative Activity of the Ester Conjugate HA/SN38 having a Substitution Degree Equal to 10% and 15%, on the Cellular Line of Colic Adenocarcinoma HT29
Aliquots of the derivatives obtained from examples 1 and 2 are characterized by means of a cytotoxicity test in vitro on a line of colic tumoral cells called HT29. The comparison was effected with SN38 dissolved in DMSO. The HA derivatives are solubilized in a glucosated solution at 5% at a concentration of 5 mg/ml. The test is effected by depositing on a plate with 96 cavities, 3000 cells per cavity; after 24 hours of incubation at 37° C., the cells are put in contact with the solutions and after a further 48 hours the cell vitality is determined by means of a MTT colorimetric assay (Dezinot F. et al., J. Immunol Methods, 1986, 22(89):271-277).
The proliferation curves referring to the two ester conjugates of HA are shown in the graphs (on the left the cytotoxic activity of the derivative at 15%, on the right that at 10%), see FIG. 4.
By comparing the data of EC50 with SN38 in dimethylsulfoxide (DMSO) the following results are obtained: […]

[3] = tested on: DHD/K12 cells (MDR colon-rectum adenocarcinoma model); test: Cytotoxicity test in DHD/K12 cells, LIVE/DEAD Cell Vitality Assay; assay type: cell-based, rat; conditions: 0.25 μM, 48 hours of treatment
Experimental: The cellular line used derives from rats of the BDIX strain treated with 1,2-dimethylhydrazine.
In order to evaluate the degree of cellular vitality the LIVE/DEAD Cell Vitality Assay (Molecular Probes) was used, which allows metabolically active cells to be distinguished from dead cells: the latter emit green fluorescence at a nuclear level whereas live cells emit red fluorescence localized on the cellular membrane and in the cytoplasm. After colouring, the cells were analyzed using a confocal microscope and the percentage of live/dead cells was evaluated by counting a minimum of 500 live or dead cells per sample.

SMILES | antitumoral activity relative to commercial prodrug (Irinotecan) [1] | EC50 [2] | cytotoxic effect at low concentration [3]
CCc1c2c(nc3ccc(O)cc13)-c1cc3c(c(=O)n1C2)COC(=O)[C@]3(O)CC [SN38 in DMSO, SN38] | 100 to 1000 times | 5 nM | –
COc1cccc2c1C(=O)c1c(O)c3c(c(O)c1C2=O)C[C@@](O)(C(=O)CO)C[C@@H]3O[C@H]1C[C@H](N)[C@H](O)[C@H](C)O1 [doxorubicin] | – | – | does not have any cytotoxic effect
